Assays:
Assay in all cases: relative viability (nuclei count vs DMSO), 5 days (fraction); higher = more cells survive
Ponatinib = compound: Cc1ccc(C(=O)Nc2ccc(CN3CCN(C)CC3)c(C(F)(F)F)c2)cc1C#Cc1cnc2cccnn12 [Ponatinib]
How it was run: (§1)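 On vehicle-anchored 1536-well plates, lung cancer cell lines held overnight at 37 °C were pinned with five library-drug doses (not always all listed) spaced by √10. With no medium change over 5 days, they were then fixed, permeabilised and Hoechst-stained in one step and imaged at 4×. MetaXpress counted nuclei, and viability is the median across plates of treated-well over vehicle-well nuclei. Acceptance needed control CV below 25% and at least one doubling.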

Pazopanib = compound: Cc1ccc(Nc2nccc(N(C)c3ccc4c(C)n(C)nc4c3)n2)cc1S(N)(=O)=O [Pazopanib]
How it was run: as §1

Pazopanib + Bortezomib = compound: Cc1ccc(Nc2nccc(N(C)c3ccc4c(C)n(C)nc4c3)n2)cc1S(N)(=O)=O [Pazopanib] + CC(C)C[C@H](NC(=O)[C@H](Cc1ccccc1)NC(=O)c1cnccn1)B(O)O [Bortezomib] (partner 0.002 µM)
How it was run: (§2)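 Lung cancer cell lines in 1536-well plates got either a single drug or a fixed anchor-drug dose together with five library-drug doses (not always all listed) in √10 steps, by pin tool, on the day after seeding. Nuclei were counted after 5 days, and relative viability is the treated-to-vehicle ratio of nuclei counts. Values are medians of duplicate plates.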

Ponatinib + Alpelisib = compound: Cc1ccc(C(=O)Nc2ccc(CN3CCN(C)CC3)c(C(F)(F)F)c2)cc1C#Cc1cnc2cccnn12 [Ponatinib] + Cc1nc(NC(=O)N2CCC[C@H]2C(N)=O)sc1-c1ccnc(C(C)(C)C(F)(F)F)c1 [Alpelisib] (partner 2 µM)
How it was run: as §2

Cell Line	relative viability (Ponatinib; 0.002 µM)	relative viability (Ponatinib; 0.006325 µM)	relative viability (Ponatinib; 0.06325 µM)	relative viability (Ponatinib; 0.2 µM)	relative viability (Pazopanib; 0.01 µM)	relative viability (Pazopanib; 0.03162 µM)	relative viability (Pazopanib; 0.1 µM)	relative viability (Pazopanib; 0.3162 µM)	relative viability (Pazopanib; 1 µM)	relative viability (Pazopanib + Bortezomib; first compound 0.01 µM)	relative viability (Pazopanib + Bortezomib; first compound 0.03162 µM)	relative viability (Pazopanib + Bortezomib; first compound 0.1 µM)	relative viability (Pazopanib + Bortezomib; first compound 0.3162 µM)	relative viability (Pazopanib + Bortezomib; first compound 1 µM)	relative viability (Ponatinib + Alpelisib; first compound 0.002 µM)	relative viability (Ponatinib + Alpelisib; first compound 0.006325 µM)	relative viability (Ponatinib + Alpelisib; first compound 0.06325 µM)	relative viability (Ponatinib + Alpelisib; first compound 0.2 µM)
Calu-6	0.987	0.967	1.02	0.905	0.99	1.07	1.04	1.01	0.974	0.928	1.06	1.04	0.932	0.957	0.956	1.04	1.02	0.685
EBC-1	0.926	1.05	1.16	0.924	1.01	1.05	0.978	0.956	1.09	0.524	0.602	0.712	0.519	0.65	0.78	0.836	0.903	0.846
A-427	0.928	1.05	0.958	0.81	0.863	1.12	0.885	1	1.14	0.934	1.02	0.929	0.922	1.02	1.08	1.06	1.07	0.919
NCI-H2405	0.935	1.06	1.02	0.847	0.895	0.998	1.01	1.04	1.1	0.925	0.981	0.997	0.982	0.982	0.86	0.922	0.98	0.666
NCI-H1355	0.923	1.02	1.11	1	0.753	0.952	0.95	1	1.06	–	1.17	1.21	1.21	1.35	0.832	0.87	1.01	0.917
RERF-LC-KJ	0.926	1.01	1.05	0.965	1.11	1.03	0.984	0.919	0.969	1.03	1.05	1.05	1.16	1.04	0.904	0.739	1.02	0.889
NCI-H2228	0.828	0.991	1.07	0.895	0.964	1	1.03	0.973	1.04	0.954	1.07	0.866	0.926	0.834	0.677	0.788	1.13	0.75
HOP-62	0.921	0.86	0.912	0.857	0.963	1	1.02	1.07	0.958	0.642	0.724	–	0.935	0.923	0.782	0.871	0.652	0.718
HARA	0.844	0.972	0.938	0.914	0.957	0.978	1	1.04	1.03	1.14	1.08	1.25	1.22	1.08	0.779	0.79	0.97	0.729
PC-14	0.887	0.984	1.16	0.993	1.06	1.07	1.06	1.1	1.11	0.976	0.805	1.16	0.858	0.856	0.856	0.906	1.05	0.879
NCI-H1755	1.02	0.964	0.99	0.892	0.892	0.967	0.947	0.978	1.02	0.883	0.973	0.966	0.928	1.04	0.905	0.96	0.957	0.854
HCC-78	0.8	0.994	1.03	0.874	0.743	1	0.889	0.933	0.936	0.408	0.453	0.498	0.414	0.619	0.321	0.301	0.408	0.323
IA-LM	0.872	0.903	0.953	0.802	0.935	0.995	1.03	1.05	0.918	0.889	1.05	0.77	0.797	0.597	0.756	0.657	0.828	0.722
NCI-H441	0.899	0.925	1.07	0.855	0.931	1.05	0.982	0.905	0.958	0.377	0.384	0.665	0.324	0.434	0.625	0.615	0.808	0.525
NCI-H322M	0.96	0.983	0.953	0.853	0.906	0.996	0.92	0.967	1.03	1.09	1.34	1.35	1.32	1.21	0.77	0.694	0.866	0.827
NCI-H2347	0.977	1	1.19	0.977	0.932	1	0.98	1.05	1.04	–	–	1.23	0.95	0.997	1	1.1	1.18	1.02
COR-L23	0.887	0.941	0.97	0.876	1.13	1	1.04	1.09	1.04	1.23	1.08	1.12	0.935	1.02	0.747	0.775	0.844	0.778
NCI-H2087	0.877	0.782	0.928	0.974	1.02	1.06	1.07	1.09	0.908	0.979	0.909	0.804	0.798	0.879	0.812	0.84	0.932	0.879

Cell Line	relative viability (Ponatinib; 0.002 µM)	relative viability (Ponatinib; 0.006325 µM)	relative viability (Ponatinib; 0.06325 µM)	relative viability (Ponatinib; 0.2 µM)	relative viability (Pazopanib; 0.01 µM)	relative viability (Pazopanib; 0.03162 µM)	relative viability (Pazopanib; 0.1 µM)	relative viability (Pazopanib; 0.3162 µM)	relative viability (Pazopanib; 1 µM)	relative viability (Pazopanib + Bortezomib; first compound 0.01 µM)	relative viability (Pazopanib + Bortezomib; first compound 0.03162 µM)	relative viability (Pazopanib + Bortezomib; first compound 0.1 µM)	relative viability (Pazopanib + Bortezomib; first compound 0.3162 µM)	relative viability (Pazopanib + Bortezomib; first compound 1 µM)	relative viability (Ponatinib + Alpelisib; first compound 0.002 µM)	relative viability (Ponatinib + Alpelisib; first compound 0.006325 µM)	relative viability (Ponatinib + Alpelisib; first compound 0.06325 µM)	relative viability (Ponatinib + Alpelisib; first compound 0.2 µM)
LC-2-ad	0.85	0.885	0.785	0.768	1	0.99	1.01	1.07	1.07	0.977	1.08	1.02	0.956	1.12	0.832	0.792	0.648	0.552
NCI-H1915	0.906	1	0.986	0.971	0.915	1.02	0.995	0.961	0.894	0.936	0.963	0.983	0.972	0.884	0.976	1.03	1.06	0.961
NCI-H2023	0.821	0.95	1.1	0.846	0.856	1	0.989	0.974	1.22	0.719	0.945	0.877	0.964	1.42	0.642	0.639	0.666	0.61
COR-L 105	1.01	0.933	1.18	1.05	1.08	0.91	0.95	1.1	1.14	0.903	0.859	0.684	0.765	0.977	0.976	0.846	1.31	0.935
SK-LU-1	0.943	1	1.07	0.928	0.939	1.09	1.08	1.05	1.08	1.15	1.08	1.23	1.37	1.27	0.945	1.14	0.952	0.646
LXF-289	0.948	0.998	0.984	0.969	1.07	0.989	1.04	0.997	1	0.998	1.02	0.993	0.91	0.956	1.05	1.02	1.04	1.08
PC-3 [JPC-3]	0.932	1.05	1.15	1.03	1.13	1.05	1.09	1.02	1.01	0.957	0.948	0.814	0.868	0.774	1	1.09	1.02	1.09
NCI-H661	0.98	0.942	0.985	0.99	0.939	0.958	1.03	1	0.986	0.823	0.853	0.786	0.631	0.873	0.562	0.79	0.733	0.506
NCI-H1666	0.919	0.977	1.11	1.04	0.989	1	1.01	0.976	1.07	0.707	0.829	0.77	1.01	1.35	0.864	1.04	1.05	1.07
NCI-H2085	1.01	0.997	1.19	1.06	0.973	1.04	0.966	1.01	1.02	1.04	1.09	1.01	1.02	1.13	0.881	1.01	1.07	0.959
NCI-H1734	0.938	0.974	1	0.871	0.776	1.03	1.11	1.13	1.12	0.846	0.897	1.01	0.996	0.935	0.594	0.721	0.741	0.614
NCI-H2126	0.959	1.04	1.14	1.04	0.91	0.903	1.02	0.991	0.996	1.05	1.14	1.11	1.07	1.09	0.779	0.769	0.851	0.852
EMC-BAC-2	0.821	0.973	1.04	0.822	–	0.977	0.93	1.03	1.04	0.889	1.11	1.1	1.04	1.22	0.695	0.707	0.82	0.721
NCI-H1993	1.02	1.03	1.2	1.05	–	0.791	0.936	0.983	0.86	0.758	1.02	1.02	1.2	1.28	0.63	0.793	0.71	0.688
NCI-H596	0.906	0.924	0.875	0.785	0.815	1.05	0.959	0.904	1.05	0.872	1.14	0.962	1.16	1.02	0.428	0.449	0.495	0.399
NCI-H650	0.791	0.848	0.858	0.896	0.801	0.982	0.916	0.948	0.946	0.696	0.861	0.804	0.935	0.812	0.964	1.08	1.22	0.99
NCI-H1792	0.887	0.836	1.12	0.838	–	0.911	0.832	1.12	0.956	–	0.958	0.916	0.949	0.935	0.668	0.681	0.746	0.656
